Measured values: ChEMBL document CHEMBL5226291, “The race to treat COVID-19: Potential therapeutic agents for the prevention and treatment of SARS-CoV-2” (Eur J Med Chem, 2021)
Converted amounts (≈) assume the structure as drawn. Square brackets hold non-standard residues; d marks the D form. Peptide text beside a SMILES is read from it. * marks the point of attachment. ξ: configuration not given here. Decanoyl = CCCCCCCCCC(=O)*; ξF = NC(Cc1ccccc1)C(=O)O; Cbz = O=C(OCc1ccccc1)*; CH2Cl = ClC*

Key:
SARS-CoV [1] = assay: Antiviral activity against SARS-CoV infected in HEK293 cells expressing human ACE2 assessed as inhibition of viral replication measured after 40 hrs by luciferase assay; type: functional, organism-based; conditions: Severe acute respiratory syndrome-related coronavirus, HEK293, 40 h
[2] = Cytotoxicity against African green monkey Vero E6 cells by CCK-8 assay; type: toxicity, cell-based, Vero C1008; conditions: chlorocebus sabaeus
[3] = target: Replicase polyprotein 1ab (Severe acute respiratory syndrome coronavirus 2) (UniProt P0DTD1); assay: Inhibition of recombinant SARS-COV2 main protease using Mca-AVLQ-SGFR-Lys-NH2 as substrate at 1 uM by FRET based cleavage assay
Zika virus = assay: Antiviral activity against Zika virus MR766 infected in Vero cells assessed as reduction in viral replication by plaque reduction assay; type: functional, organism-based
Ebolavirus [4] = type: functional, organism-based; conditions: Orthoebolavirus, Vero C1008, 120 h
[5] = target: Replicase polyprotein 1ab (Severe acute respiratory syndrome coronavirus 2, UniProt P0DTD1); assay: Inhibition of SARS-COV2 main protease using Mca-AVLQ-SGFR-K as substrate by Fluorescence microplate reader assay
SARS-CoV-2 [6] = type: functional, organism-based; conditions: Severe acute respiratory syndrome coronavirus 2, Vero C1008, 48 h
[7] = target: Disintegrin and metalloproteinase domain-containing protein 17 (Mus musculus, UniProt Q9Z0F8); assay: Inhibition of mouse ADAM17 expressed in HEK293 cells overexpressed with ACE2 assessed as inhibition of ACE2 shedding incubated for 65 mins in presence of PMA by immunoblotting assay; type: cell-based
[8] = Cytotoxicity against African green monkey Vero E6 cells by MTT assay; type: toxicity, cell-based, Vero C1008; conditions: chlorocebus sabaeus
SARS-CoV-2 [9] = type: functional, organism-based; conditions: Severe acute respiratory syndrome coronavirus 2, Vero C1008, 96 h
SARS-CoV [10] = assay: Antiviral activity against SARS-CoV infected in HEK293T cells assessed as reduction in viral replication incubated for 7 hrs by luciferase assay; type: functional, organism-based; conditions: Severe acute respiratory syndrome-related coronavirus, HEK-293T
Ebolavirus [11] = assay: Antiviral activity against Ebolavirus infected in HEK293T cells assessed as reduction in viral replication incubated for 7 hrs by luciferase assay; type: functional, organism-based; conditions: Orthoebolavirus, HEK-293T
Procathepsin L [12] = target: T1, Procathepsin L (Homo sapiens, UniProt P07711); assay: Inhibition of human liver Cathepsin L using Z-Phe-Arg-AMC as substrate incubated for 30 mins by fluorometric assay
[13] = test system: Middle East respiratory syndrome-related coronavirus; assay: Antiviral activity against wild type MERS-CoV infected in HEK293T/17 cells assessed as inhibition of viral replication by immunoblotting assay; type: functional, organism-based
SARS-CoV [14] = type: functional, organism-based; conditions: Severe acute respiratory syndrome-related coronavirus, Vero C1008
[15] = test system: Middle East respiratory syndrome-related coronavirus; assay: Antiviral activity against recombinant MERS-CoV pseudovirus infected in Huh-7 cells assessed as inhibition of viral replication measured after 72 hrs by luminometer; type: functional, organism-based; conditions: Huh-7, 72 h
[16] = Cytotoxicity against human Huh-7 cells incubated for 3 days by XTT assay; type: toxicity, cell-based; conditions: time 3 day
[17] = Selectivity index. ratio of CC50 for cytotoxicity against human Huh-7 cells to IC50 for antiviral activity against MERS-CoV pseudovirus infected in Huh-7; type: toxicity, cell-based; conditions: read-out: Ratio CC50/IC50
[18] = Antiviral activity against Human coronavirus NL63 infected in HEK293T cells expressing human ACE2 assessed as inhibition of viral replication incubated for 2 days by Dual-Glo luciferase assay; type: functional, cell-based; conditions: Human coronavirus NL63, HEK-293T, 48 h
[19] = test system: Middle East respiratory syndrome-related coronavirus; assay: Antiviral activity against recombinant MERS-CoV pseudovirus infected in Vero cells assessed as inhibition of viral replication incubated for 2 days by Dual-Glo luciferase assay; type: functional, organism-based; conditions: 48 h
[20] = Cytotoxicity against human HEK293T cells; type: toxicity, cell-based, HEK-293T
SARS-CoV [21] = assay: Antiviral activity against SARS-CoV infected in HeLa cells expressing human TMPRSS2 assessed as inhibition of viral replication measured after 20 hrs by fluorescence microscopy; type: functional, organism-based; conditions: Severe acute respiratory syndrome-related coronavirus
SARS-CoV [22] = assay: Antiviral activity against SARS-CoV infected in HeLa cells expressing human TMPRSS2 assessed as inhibition of viral replication at 100 uM measured after 20 hrs by fluorescence microscopy; type: functional; conditions: Severe acute respiratory syndrome-related coronavirus
SARS-CoV [23] = assay: Antiviral activity against SARS-CoV infected in HeLa cells expressing human TMPRSS2 assessed as inhibition of viral replication at 10 uM measured after 20 hrs in presence of EST by fluorescence microscopy; type: functional; conditions: Severe acute respiratory syndrome-related coronavirus
[24] = Cytotoxicity against human HEK293T cells by XTT assay; type: toxicity, cell-based, HEK-293T
SARS-CoV [25] = type: functional, organism-based; conditions: Severe acute respiratory syndrome-related coronavirus, BJ01, Vero C1008, 64 h
[26] = Selectivity index. ratio of CC50 for cytotoxicity against African green monkey Vero E6 cells to EC50 for antiviral activity against wild type SARS-CoV BJ01 infected in Vero E6 cells; type: toxicity, cell-based, Vero C1008; conditions: read-out: Ratio CC50/EC50
SARS-CoV [27] = type: functional, organism-based; conditions: Severe acute respiratory syndrome-related coronavirus, Vero C1008, 48 h
SARS-CoV-2 [28] = type: functional; conditions: Severe acute respiratory syndrome coronavirus 2, Vero C1008; time 18 hrs; read-out: ED50 (the source's name)
SARS-CoV-2 [29] = type: functional, organism-based; conditions: Severe acute respiratory syndrome coronavirus 2, Vero C1008, 48 h; remark: listed apart in the source
SARS-CoV [30] = type: functional, organism-based; conditions: Severe acute respiratory syndrome-related coronavirus, HEK-293T, 48 h
Procathepsin L [31] = target: T1, Procathepsin L; assay: Inhibition of recombinant Cathepsin L (unknown origin) using Z-Phe-Arg-AMC as substrate by fluorometric assay

Chain of Disintegrin and metalloproteinase domain-containing protein 17 (Q9Z0F8 whole entry, the tested form may be a part): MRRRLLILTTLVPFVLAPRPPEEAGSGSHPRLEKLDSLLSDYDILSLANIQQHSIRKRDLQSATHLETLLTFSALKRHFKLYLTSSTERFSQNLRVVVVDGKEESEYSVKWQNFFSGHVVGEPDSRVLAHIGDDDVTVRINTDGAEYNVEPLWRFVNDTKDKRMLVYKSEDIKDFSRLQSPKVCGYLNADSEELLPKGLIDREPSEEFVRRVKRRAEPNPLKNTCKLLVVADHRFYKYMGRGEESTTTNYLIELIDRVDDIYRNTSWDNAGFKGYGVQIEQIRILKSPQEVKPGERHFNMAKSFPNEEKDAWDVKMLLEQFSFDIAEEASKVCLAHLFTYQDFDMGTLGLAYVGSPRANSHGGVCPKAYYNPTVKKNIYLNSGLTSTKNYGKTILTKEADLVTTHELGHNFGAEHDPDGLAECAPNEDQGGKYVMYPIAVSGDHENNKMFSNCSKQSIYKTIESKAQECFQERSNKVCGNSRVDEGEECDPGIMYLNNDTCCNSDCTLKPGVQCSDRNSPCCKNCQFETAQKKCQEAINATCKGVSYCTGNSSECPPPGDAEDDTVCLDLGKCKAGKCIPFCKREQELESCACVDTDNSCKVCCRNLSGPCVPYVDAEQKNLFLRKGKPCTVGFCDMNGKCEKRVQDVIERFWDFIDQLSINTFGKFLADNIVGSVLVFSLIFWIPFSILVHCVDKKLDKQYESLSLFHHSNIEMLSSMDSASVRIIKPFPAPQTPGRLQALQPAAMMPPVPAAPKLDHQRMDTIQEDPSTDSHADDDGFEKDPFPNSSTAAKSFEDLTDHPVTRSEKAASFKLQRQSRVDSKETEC
T1 sequence (P07711 whole entry): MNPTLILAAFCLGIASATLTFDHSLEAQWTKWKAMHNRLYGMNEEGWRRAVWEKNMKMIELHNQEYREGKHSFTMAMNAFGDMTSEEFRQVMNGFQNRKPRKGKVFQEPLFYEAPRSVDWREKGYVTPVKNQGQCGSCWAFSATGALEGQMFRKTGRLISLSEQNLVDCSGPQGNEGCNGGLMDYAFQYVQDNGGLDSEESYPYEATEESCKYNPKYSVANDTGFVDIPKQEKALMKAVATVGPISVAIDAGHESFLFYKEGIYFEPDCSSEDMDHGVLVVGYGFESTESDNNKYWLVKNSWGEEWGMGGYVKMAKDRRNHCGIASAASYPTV

`CC(C)[C@H](NC(=O)OCc1ccccc1)C(=O)NC(C=O)Cc1ccccc1` (stereo partly drawn) (Cbz-Val-[ξF]-aldehyde) showed an EC50 (SARS-CoV [1]) of 0.1 µM.
`O=C[C@H](C[C@@H]1CCNC1=O)NC(=O)[C@H](CC1CCCCC1)NC(=O)c1cc2ccccc2[nH]1` showed a CC50 [2] greater than 100 µM and an inhibition [3] of 100%.
In the case of `NC(=O)c1nc(F)cnc1O`, the CC50 [2] is reported as greater than 400 µM, the EC50 (Zika virus) is reported as 3.5 mg/L (≈ 22.3 µM) and the EC50 (Ebolavirus [4]) is reported as 10.5 mg/L (≈ 66.8 µM).
`Cn1sc(=O)n(Cc2ccccc2)c1=O` showed an IC50 [5] of 2.5 µM.
`CCN(CCO)CCCC(C)Nc1ccnc2cc(Cl)ccc12` (stereo unspecified) [HYDROXYCHLOROQUINE] gave an EC50 (SARS-CoV-2 [6]) of 0.72 µM.
In the case of `O=C[C@H](C[C@@H]1CCNC1=O)NC(=O)[C@H](Cc1cccc(F)c1)NC(=O)c1cc2ccccc2[nH]1`, the CC50 [2] is reported as greater than 100 µM and the inhibition [3] is reported as 86%.
`CC(C)CC(CC(=O)NO)C(=O)N[C@H](C(=O)N[C@@H](C)C(=O)NCCN)C(C)(C)C` (stereo partly specified) gave an IC50 [7] of 0.2 µM.
For `O=c1c(O)c(-c2ccc(O)c(O)c2)oc2cc(O)cc(O)c12` [QUERCETIN], the CC50 [8] was 3.32 µM.
In the case of `NC(=O)c1ncn([C@@H]2O[C@H](CO)[C@@H](O)[C@H]2O)n1` [RIBAVIRIN], the CC50 [2] is reported as greater than 400 µM.
Work on `Cc1cc(C(=O)N[C@@H](C)C(=O)N[C@H](C(=O)N[C@@H](CC(C)C)C(=O)N[C@H](/C=C\C(=O)OCc2ccccc2)C[C@@H]2CCNC2=O)C(C)C)no1` yielded an EC50 (SARS-CoV-2 [9]) of 16.8 µM.
In the case of `CC(C)(C)OC(=O)N[C@@H](Cc1c[nH]c2ccccc12)C(=O)NNC(=O)OCC(=O)N1CCCc2ccccc21`, the IC50 (SARS-CoV [10]) is reported as 273 µM, the IC50 (Ebolavirus [11]) is reported as 193 µM and the IC50 (Procathepsin L [12]) is reported as 6.9 µM.
`CCCCCCCCCC(=O)N[C@@H](CCCNC(=N)N)C(=O)N[C@H](C(=O)N[C@@H](CCCCN)C(=O)N[C@@H](CCCNC(=N)N)C(=O)CCl)C(C)C` (Decanoyl-RVKR-CH2Cl) showed an IC50 [13] of 75 µM.
`COc1ccc(S(=O)(=O)O)cc1/N=N/c1c(S(=O)(=O)O)cc2cc(Nc3nc(Nc4ccccc4)nc(Nc4cc(C)c(/N=N/c5cc(S(=O)(=O)O)cc6cc(S(=O)(=O)O)cc(O)c56)cc4OC)n3)ccc2c1O` showed an IC50 (SARS-CoV [14]) of 3.89 µM, an IC50 [15] of 0.6 µM and a CC50 at 72 h [16] of 26.9 µM. It also gave a selectivity ratio [17] of 45.
For `CN1CCN(C(=O)N[C@@H](Cc2ccccc2)C(=O)N[C@H](/C=C/S(=O)(=O)c2ccccc2)CCc2ccccc2)CC1` [K-777], the IC50 [18] was less than 0.007 µM, the IC50 [19] was 0.046 µM and the CC50 [20] was greater than 10 µM.
In the case of `CC(C)C[C@H](CC(=O)NO)C(=O)N[C@@H](Cc1ccc2ccccc2c1)C(=O)N[C@@H](C)C(N)=O`, the IC50 [7] is reported as 0.1 µM.
For `CN(C)C(=O)COC(=O)Cc1ccc(OC(=O)c2ccc(NC(=N)N)cc2)cc1` [CAMOSTAT], the IC50 (SARS-CoV [21]) was 10 µM, the inhibition at 100 µM (SARS-CoV [22]) was 65% and the inhibition at 10 µM (SARS-CoV [23]) was greater than 95%.
`CN1CCN(c2ccc(CNC(=O)c3ccno3)cc2)CC1` showed a CC50 [24] greater than 100 µM.
Molecule `O=c1cc(-c2ccc(O)c(O)c2)oc2cc(O)cc(O)c12` [LUTEOLIN] has an EC50 (SARS-CoV [25]) of 10.6 µM, a CC50 [8] of 0.155 µM and a selectivity ratio [26] of 14.6.
With `CCC(CC)COC(=O)[C@H](C)N[P@](=O)(OC[C@H]1O[C@@](C#N)(c2ccc3c(N)ncnn23)[C@H](O)[C@@H]1O)Oc1ccccc1` the EC50 (SARS-CoV [27]) was 0.069 µM.
`CCN(CC)CCCC(C)Nc1ccnc2cc(Cl)ccc12` (stereo unspecified) [CHLOROQUINE] showed an EC50 (SARS-CoV-2 [28]) of 4.4 µM, an EC50 (SARS-CoV-2 [29]) of 1.13 µM and a CC50 [2] greater than 100 µM.
Work on `Cc1cccc(C)c1OCC(=O)N[C@@H](Cc1ccccc1)[C@@H](O)C[C@H](Cc1ccccc1)NC(=O)[C@H](C(C)C)N1CCCNC1=O` [LOPINAVIR] yielded an EC50 (SARS-CoV-2 [29]) of 26.1 µM.
In the case of `Nc1nc2c(ncn2CCC(CO)CO)c(=O)[nH]1` [PENCICLOVIR], the CC50 [2] is reported as greater than 400 µM and the EC50 (SARS-CoV [27]) is reported as 96 µM.
`O=C(OC[C@H]1O[C@@H](OC(=O)c2cc(O)c(O)c(O)c2)[C@H](OC(=O)c2cc(O)c(O)c(O)c2)[C@H](OC(=O)c2cc(O)c(O)c(O)c2)[C@@H]1O)c1cc(O)c(O)c(O)c1` gave an EC50 (SARS-CoV [25]) of 4.5 µM, a CC50 [8] of 1.08 µM and a selectivity ratio [26] of 240.
For `C/C(=N\NC(N)=S)c1cccs1`, the EC50 (SARS-CoV [30]) was 6.4 µM, the CC50 [24] was less than 100 µM and the IC50 (Procathepsin L [31]) was 5.33 µM.
